What was measured:
huPPARα = biological target: T1, huPPARα (Homo sapiens, UniProt Q07869); assay: DNA-dependent binding (ABCD binding), SPA, huPPARα; details: displacement of tritium-labeled PPARα agonist radioligand
T1 sequence (Q07869 1-468): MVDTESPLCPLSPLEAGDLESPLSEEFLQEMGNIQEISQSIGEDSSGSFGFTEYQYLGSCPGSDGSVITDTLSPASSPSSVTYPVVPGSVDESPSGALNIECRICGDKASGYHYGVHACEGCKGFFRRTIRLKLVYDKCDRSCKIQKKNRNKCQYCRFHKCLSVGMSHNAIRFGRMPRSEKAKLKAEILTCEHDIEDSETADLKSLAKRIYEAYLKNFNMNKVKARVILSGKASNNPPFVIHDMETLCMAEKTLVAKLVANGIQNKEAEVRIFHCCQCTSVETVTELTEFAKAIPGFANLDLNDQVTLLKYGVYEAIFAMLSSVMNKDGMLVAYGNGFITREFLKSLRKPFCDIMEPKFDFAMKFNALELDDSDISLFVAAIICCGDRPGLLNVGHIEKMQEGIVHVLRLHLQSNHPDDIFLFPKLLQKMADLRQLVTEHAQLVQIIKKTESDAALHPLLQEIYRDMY
T1 sequence (P19793 1-462 partner): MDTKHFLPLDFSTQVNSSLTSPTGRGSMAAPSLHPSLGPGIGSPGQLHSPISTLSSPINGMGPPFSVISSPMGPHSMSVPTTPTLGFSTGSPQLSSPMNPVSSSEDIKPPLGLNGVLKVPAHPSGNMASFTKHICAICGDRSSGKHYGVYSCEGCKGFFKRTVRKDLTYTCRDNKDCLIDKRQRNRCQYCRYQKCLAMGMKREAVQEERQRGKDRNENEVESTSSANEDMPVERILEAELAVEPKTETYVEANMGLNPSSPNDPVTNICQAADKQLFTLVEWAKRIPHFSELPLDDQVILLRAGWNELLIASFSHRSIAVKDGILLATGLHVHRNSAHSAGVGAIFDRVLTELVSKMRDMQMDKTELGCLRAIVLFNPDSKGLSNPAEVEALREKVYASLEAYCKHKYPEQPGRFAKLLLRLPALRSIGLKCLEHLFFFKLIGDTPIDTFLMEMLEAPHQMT
Procedure: (§1) DNA-dependent binding (ABCD binding) was carried out using SPA technology with PPAR receptors. Tritium-labeled PPARγ and PPARα agonists were used as radioligands for generating displacement curves and IC50 values with compounds of the invention. Cotransfection assays were carried out in CV-1 cells. The reporter plasmid contained an acylCoA oxidase (AOX) PPRE and TK promoter upstream of the luciferase reporter cDNA. Appropriate PPARs and RXRα were constitutively expressed using plasmids containing the CMV promoter. […] In order to eliminate such interference, a GAL4 chimeric system was used in which the DNA binding domain of the transfected PPAR was replaced by that of GAL4, and the GAL4 response element was utilized in place of the AOX PPRE. Cotransfection efficacy was determined relative to PPARα agonist and PPARβ agonist reference molecules. Efficacies were determined by computer fit to a concentration-response curve, or in some cases at a single high concentration of agonist (10 μM). For binding or cotransfection studies with receptors other than PPARs, similar assays were carried out using appropriate ligands, receptors, reporter constructs, etc., for that particular receptor.
(§2) These studies were carried out to evaluate the ability of compounds of the invention to bind to and/or activate various nuclear transcription factors, particularly huPPARα (“hu” indicates “human”) and huPPARγ. These studies provide in vitro data concerning efficacy and selectivity of compounds of the invention. Furthermore, binding and cotransfection data for compounds of the invention were compared with corresponding data for marketed compounds that act on either huPPARα or huPPARγ.

huPPARγ [1] = biological target: T2, huPPARγ (Homo sapiens, UniProt P37231); assay: DNA-dependent binding (ABCD binding), SPA, huPPARγ; details: displacement of tritium-labeled PPARγ agonist radioligand
T2 sequence (P37231 1-505): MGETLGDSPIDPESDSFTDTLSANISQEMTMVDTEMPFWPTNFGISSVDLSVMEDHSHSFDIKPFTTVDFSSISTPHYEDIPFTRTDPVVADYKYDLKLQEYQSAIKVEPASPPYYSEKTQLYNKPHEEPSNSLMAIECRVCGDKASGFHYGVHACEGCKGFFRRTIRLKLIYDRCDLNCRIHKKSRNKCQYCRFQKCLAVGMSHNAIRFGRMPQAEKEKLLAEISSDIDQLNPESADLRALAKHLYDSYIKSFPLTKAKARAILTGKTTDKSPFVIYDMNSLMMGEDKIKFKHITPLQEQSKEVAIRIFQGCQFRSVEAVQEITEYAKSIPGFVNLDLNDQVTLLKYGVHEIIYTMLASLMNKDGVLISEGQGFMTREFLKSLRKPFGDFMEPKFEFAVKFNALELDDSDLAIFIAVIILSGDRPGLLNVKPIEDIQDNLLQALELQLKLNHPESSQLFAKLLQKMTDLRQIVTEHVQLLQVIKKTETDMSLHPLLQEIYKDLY
T2 sequence (P19793 1-462 partner): T1 sequence (P19793 1-462 partner)
Procedure: as §1, §2

huPPARγ [2] = biological target: T2, huPPARγ; assay: Cotransfection assay in CV-1 cells, huPPARγ; type: cell-based; parameters: expressed in transfected cells; host or cells: CV-1 cells; details: AOX PPRE luciferase reporter, relative to agonist reference molecule, read-out: huPPARγ CTF Efficacy
Procedure: as §1, with “Tritium-labeled PPARγ and PPARα agonists were used as radioligands for generating displacement curves and IC50 values with compounds of the invention.” left out, “Cotransfection efficacy was determined relative to PPARα agonist and PPARβ agonist reference molecules.” left out
as §2

Row | IC50 (huPPARα) | IC50 (huPPARγ [1]) | Emax (huPPARγ [2]) | Compound
1 | 97 nM | 532 nM | 70% | Cc1oc(-c2ccc(-c3ccccc3)cc2)nc1CCOc1cccc(OC(C)(C)C(=O)O)c1 [Example 21, 2-{3-[2-(2-Biphenyl-4-yl-5-methyloxazol-4-yl)ethoxy]phenoxy}-2-methylpropionic acid]
2 | 155 nM | 457 nM | 84% | Cc1oc(-c2ccc(-c3c(F)cccc3F)cc2)nc1CCOc1ccc(OC(C)(C)C(=O)O)cc1 [Example 14, 2-(4-{2-[2-(2′,6′-Difluorobiphenyl-4-yl)-5-methyloxazol-4-yl]-ethoxy}-phenoxy)-2-methylpropionic acid]
3 | 447 nM | 268 nM | 142% | Cc1sc(-c2cccc(-c3ccccc3)c2)nc1CCOc1ccc(OC(C)(C)C(=O)O)cc1 [Example 46, 2-{4-[2-(2-Biphenyl-3-yl-5-methyl-thiazol-4-yl)-ethoxy]-phenoxy}-2-methyl-propionic acid]
